In brackets after ≈: the same amount, converted by molar mass.
Columns and labels:
Assay in all cases: in vitro antibacterial activity (MIC), agar dilution
Assay type in all cases: cell-based
[1] = test system: Staphylococcus aureus 1775; details: organism code GG; BHI agar, 35-37° C., 20 to 24 hours; unit assumed
Outline: (§1)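 Steps: dilute compound serially into BHI agar (twelve plates); spot inocula diluted 1:100, or 1:10 for slow-growing Streptococcus; incubate; inspect visually. MIC recorded as lowest level with no growth, slight haze or sparse isolated colonies.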

[2] = test system: Staphylococcus aureus A5177; details: organism code BB; BHI agar, 35-37° C., 20 to 24 hours; unit assumed
Outline: as §1

[3] = test system: Micrococcus luteus ATCC 9341; details: organism code OO; BHI agar, 35-37° C., 20 to 24 hours; unit assumed
Outline: (§2)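 Endpoint: lowest concentration with no growth, slight haze or sparsely isolated colonies at the inoculum spot, judged against a compound-free BHI control. Strains were replicator-inoculated at 1:100 (1:10 for Streptococcus and other slow growers).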

[4] = test system: Streptococcus bovis A-5169; details: organism code JJ; BHI agar, 35-37° C., 20 to 24 hours; unit assumed
Outline: as §1

[5] = test system: Micrococcus luteus ATCC 4698; details: organism code PP; BHI agar, 35-37° C., 20 to 24 hours; unit assumed
Outline: as §2

[6] = test system: Mycobacterium smegmatis ATCC 114; details: organism code UU; BHI agar, 35-37° C., 20 to 24 hours; unit assumed
Outline: as §1

[7] = test system: Streptococcus pyogenes EES61; details: organism code LL; BHI agar, 35-37° C., 20 to 24 hours; unit assumed
Outline: as §1

[8] = test system: Streptococcus Pneumonia ATCC6303; details: organism code XX; BHI agar, 35-37° C., 20 to 24 hours; unit assumed
Outline: as §1

[9] = test system: Staphylococcus aureus NCTC10649M; details: organism code EE; BHI agar, 35-37° C., 20 to 24 hours; unit assumed
Outline: as §1

[10] = test system: Streptococcus pyogenes PIU 2548; details: organism code NN; BHI agar, 35-37° C., 20 to 24 hours; unit assumed
Outline: as §1

[11] = test system: Streptococcus Pneumonia GYR 1171; details: organism code YY; BHI agar, 35-37° C., 20 to 24 hours; unit assumed
Outline: as §1

[12] = test system: Streptococcus Pneumonia 5649; details: organism code ZZA; BHI agar, 35-37° C., 20 to 24 hours; unit assumed
Outline: as §1

[13] = test system: Streptococcus pyogenes 930; details: organism code MM; BHI agar, 35-37° C., 20 to 24 hours; unit assumed
Outline: as §1

[14] = test system: Staphylococcus aureus CMX 642A; details: organism code DD; BHI agar, 35-37° C., 20 to 24 hours; unit assumed
Outline: as §1

[15] = test system: Nocardia Asteroides ATCC9970; details: organism code VV; BHI agar, 35-37° C., 20 to 24 hours; unit assumed
Outline: as §1

[16] = test system: Staphylococcus aureus ATCC 6538P; details: organism code AA; BHI agar, 35-37° C., 20 to 24 hours; unit assumed
Outline: as §1

[17] = test system: Enterococcus faecium ATCC 8043; details: organism code II; BHI agar, 35-37° C., 20 to 24 hours; unit assumed
Outline: as §1

Escherichia coli SS = details: organism code RR; BHI agar, 35-37° C., 20 to 24 hours; unit assumed
Outline: as §1

[18] = test system: Staphylococcus aureus A-5278; details: organism code CC; BHI agar, 35-37° C., 20 to 24 hours; unit assumed
Outline: as §1

[19] = test system: Haemophilis Influenzae DILL AMP R; details: organism code WW; BHI agar, 35-37° C., 20 to 24 hours; unit assumed
Outline: as §1

[20] = test system: Staphylococcus aureus CMX 553; details: organism code FF; BHI agar, 35-37° C., 20 to 24 hours; unit assumed
Outline: as §1

Candida albicans CCH 442 = details: organism code TT; BHI agar, 35-37° C., 20 to 24 hours; unit assumed
Outline: as §1

Escherichia coli JUHL = details: organism code QQ; BHI agar, 35-37° C., 20 to 24 hours; unit assumed
Outline: as §1

[21] = test system: Streptococcus agalactiae CMX 508; details: organism code KK; BHI agar, 35-37° C., 20 to 24 hours; unit assumed
Outline: as §1

Escherichia coli DC-2 = details: organism code SS; BHI agar, 35-37° C., 20 to 24 hours; unit assumed
Outline: as §1

[22] = test system: Streptococcus Pneumonia 5979; details: organism code ZZ; BHI agar, 35-37° C., 20 to 24 hours; unit assumed
Outline: as §1

[23] = test system: Staphylococcus epidermidis 3519; details: organism code HH; BHI agar, 35-37° C., 20 to 24 hours; unit assumed
Outline: as §1

## CC[C@H]1OC(=O)[C@H](C)C(=O)[C@H](C)[C@@H](O[C@@H]2O[C@H](C)C[C@H](N(C)C)[C@H]2O)[C@](C)(OC/C=C/c2cnc(-c3cncs3)s2)C[C@@H](C)C(=O)[C@H](C)[C@H]2NC(=O)O[C@@]21C [Example 60]
[1]
  MIC: > 100 µg/mL
[2]
  MIC: 0.05 µg/mL (≈ 0.0621 µM)
[3]
  MIC: ≤ 0.005 µg/mL
[4]
  MIC: ≤ 0.005 µg/mL
[5]
  MIC: 0.02 µg/mL (≈ 0.0248 µM)
[6]
  MIC: 1.56 µg/mL (≈ 1.94 µM)
[7]
  MIC: 0.01 µg/mL (≈ 0.0124 µM)
[8]
  MIC: ≤ 0.004 µg/mL
[9]
  MIC: 0.1 µg/mL (≈ 0.124 µM)
[10]
  MIC: 0.2 µg/mL (≈ 0.248 µM)
[11]
  MIC: ≤ 0.004 µg/mL
[12]
  MIC: 0.25 µg/mL (≈ 0.311 µM)
[13]
  MIC: 3.1 µg/mL (≈ 3.85 µM)
[14]
  MIC: 0.05 µg/mL (≈ 0.0621 µM)
[15]
  MIC: 0.01 µg/mL (≈ 0.0124 µM)
[16]
  MIC: 0.1 µg/mL (≈ 0.124 µM)
[17]
  MIC: 0.02 µg/mL (≈ 0.0248 µM)
Escherichia coli SS
  MIC: 0.2 µg/mL (≈ 0.248 µM)
[18]
  MIC: > 100 µg/mL
[19]
  MIC: 4 µg/mL (≈ 4.97 µM)
[20]
  MIC: 0.05 µg/mL (≈ 0.0621 µM)
Candida albicans CCH 442
  MIC: > 100 µg/mL
Escherichia coli JUHL
  MIC: 50 µg/mL (≈ 62.1 µM)
[21]
  MIC: 0.01 µg/mL (≈ 0.0124 µM)
Escherichia coli DC-2
  MIC: 100 µg/mL (≈ 124 µM)
[22]
  MIC: 1 µg/mL (≈ 1.24 µM)
[23]
  MIC: 0.1 µg/mL (≈ 0.124 µM)

## CC[C@H]1OC(=O)[C@H](C)C(=O)[C@H](C)[C@@H](O[C@@H]2O[C@H](C)C[C@H](N(C)C)[C@H]2O)[C@](C)(OC/C=C/c2ccc(-c3ncccn3)s2)C[C@@H](C)C(=O)[C@H](C)[C@H]2NC(=O)O[C@@]21C [Example 61]
[1]
  MIC: > 100 µg/mL
[2]
  MIC: 0.1 µg/mL (≈ 0.125 µM)
[3]
  MIC: 0.01 µg/mL (≈ 0.0125 µM)
[4]
  MIC: 0.01 µg/mL (≈ 0.0125 µM)
[5]
  MIC: 0.05 µg/mL (≈ 0.0626 µM)
[6]
  MIC: 0.39 µg/mL (≈ 0.488 µM)
[7]
  MIC: 0.01 µg/mL (≈ 0.0125 µM)
[8]
  MIC: 0.015 µg/mL (≈ 0.0188 µM)
[9]
  MIC: 0.1 µg/mL (≈ 0.125 µM)
[10]
  MIC: 0.1 µg/mL (≈ 0.125 µM)
[11]
  MIC: 0.015 µg/mL (≈ 0.0188 µM)
[12]
  MIC: 0.25 µg/mL (≈ 0.313 µM)
[13]
  MIC: 50 µg/mL (≈ 62.6 µM)
[14]
  MIC: 0.1 µg/mL (≈ 0.125 µM)
[15]
  MIC: 0.05 µg/mL (≈ 0.0626 µM)
[16]
  MIC: 0.05 µg/mL (≈ 0.0626 µM)
[17]
  MIC: 0.05 µg/mL (≈ 0.0626 µM)
Escherichia coli SS
  MIC: 0.39 µg/mL (≈ 0.488 µM)
[18]
  MIC: > 100 µg/mL
[19]
  MIC: 8 µg/mL (≈ 10 µM)
[20]
  MIC: 0.1 µg/mL (≈ 0.125 µM)
Candida albicans CCH 442
  MIC: > 100 µg/mL
Escherichia coli JUHL
  MIC: 25 µg/mL (≈ 31.3 µM)
[21]
  MIC: 0.01 µg/mL (≈ 0.0125 µM)
Escherichia coli DC-2
  MIC: 50 µg/mL (≈ 62.6 µM)
[22]
  MIC: 8 µg/mL (≈ 10 µM)
[23]
  MIC: 0.1 µg/mL (≈ 0.125 µM)

## CC[C@H]1OC(=O)[C@H](C)C(=O)[C@H](C)[C@@H](O[C@@H]2O[C@H](C)C[C@H](N(C)C)[C@H]2O)[C@](C)(OC/C=C/c2ccc(-c3cnccn3)s2)C[C@@H](C)C(=O)[C@H](C)[C@H]2NC(=O)O[C@@]21C [Example 62]
[1]
  MIC: > 100 µg/mL
[2]
  MIC: 0.05 µg/mL (≈ 0.0626 µM)
[3]
  MIC: ≤ 0.005 µg/mL
[4]
  MIC: ≤ 0.005 µg/mL
[5]
  MIC: 0.05 µg/mL (≈ 0.0626 µM)
[6]
  MIC: 0.78 µg/mL (≈ 0.976 µM)
[7]
  MIC: ≤ 0.005 µg/mL
[8]
  MIC: ≤ 0.004 µg/mL
[9]
  MIC: 0.02 µg/mL (≈ 0.025 µM)
[10]
  MIC: 0.1 µg/mL (≈ 0.125 µM)
[11]
  MIC: ≤ 0.004 µg/mL
[12]
  MIC: 0.03 µg/mL (≈ 0.0375 µM)
[13]
  MIC: 3.1 µg/mL (≈ 3.88 µM)
[14]
  MIC: 0.05 µg/mL (≈ 0.0626 µM)
[15]
  MIC: ≤ 0.005 µg/mL
[16]
  MIC: 0.05 µg/mL (≈ 0.0626 µM)
[17]
  MIC: 0.02 µg/mL (≈ 0.025 µM)
Escherichia coli SS
  MIC: 0.2 µg/mL (≈ 0.25 µM)
[18]
  MIC: > 100 µg/mL
[19]
  MIC: 2 µg/mL (≈ 2.5 µM)
[20]
  MIC: 0.02 µg/mL (≈ 0.025 µM)
Candida albicans CCH 442
  MIC: > 100 µg/mL
Escherichia coli JUHL
  MIC: 50 µg/mL (≈ 62.6 µM)
[21]
  MIC: ≤ 0.005 µg/mL
Escherichia coli DC-2
  MIC: 25 µg/mL (≈ 31.3 µM)
[22]
  MIC: 2 µg/mL (≈ 2.5 µM)
[23]
  MIC: 0.05 µg/mL (≈ 0.0626 µM)
